Measured values as given in patent US12319652B2, “Salts and solid forms of (R)-1-(5-methoxy-1H-indol-1-yl)-N,N-dimethylpropan-2-amine” (priority 2021, dated 2025).

Experiments:
[1] = Equilibrium humidity evaluation of crystalline compound 1 HCl Form A (95% RH/20° C.); type: physicochemical
Protocol: The stability of crystalline compound 1 HCl Form A was evaluated. Absorbent compound 1·Cl (Form A), (100 mg) was maintained, open-capped at 95% RH/20° C. and monitored at t=0, t=5 d and t=10 d, time points.
While absorbent Compound 1 HCl Form A), (100 mg) was placed open-capped inside double, cable-tied, electrostatic polythene bags (to mimic a typical packaging configuration) and placed inside the same humidity chamber at 95% RH at 20° C. and monitored at t=0, t=5 d and t=10 d time points. Stability of compound 1·HCl (Form A) at 40° C./75% RH was examined as part of the salt screen, and was stable over 10 d.

[2] = Suspension equilibration of Compound 1 HCl at 20 and 40° C.
Protocol: The purpose of this panel was to determine if Form A evolves into a supra-ordinate form, the companion panel at 40° C. set-point was in place to detect enantiotropic behavior via different relative proportions in different solvents.
All isolated products, both wet and dry were consistent with Form A at both temperatures.

[3] = t = 10 d, open-capped vial inside double bags at 95% RH/20 (Table 111)
[4] = t = 10 d, open-capped vial inside double bags at 95% RH/20 (Table 112)
[5] = 2-Propanol 5.0 vol, panel at 40° C.
[6] = Acetone 5.0 vol, equilibration at 20° C.
[7] = Acetone 5.0 vol, panel at 40° C.
[8] = Acetone/Water (5% v/v, 0.5 aw) 5.0 vol, equilibration at 20° C.
[9] = Acetonitrile 5.0 vol, panel at 40° C.
[10] = Chlorobenzene 5.0 vol, equilibration at 20° C.
[11] = Chlorobenzene 5.0 vol, panel at 40° C.
[12] = DCM 5.0 vol, equilibration at 20° C.
[13] = EtOAc 5.0 vol, equilibration at 20° C.
[14] = EtOH 5.0 vol, equilibration at 20° C.
[15] = Ethanol 5.0 vol, panel at 40° C.
[16] = Ethyl acetate 5.0 vol, panel at 40° C.
[17] = Ethyl formate 5.0 vol, equilibration at 20° C.
[18] = Ethyl formate 5.0 vol, panel at 40° C.
[19] = Heptane 5.0 vol, equilibration at 20° C.
[20] = Heptane 5.0 vol, panel at 40° C.
[21] = Isopropanol/Water (12% v/v, 0.5 aw) 5.0 vol, equilibration at 20° C.
[22] = Isopropyl acetate 5.0 vol, equilibration at 20° C.
[23] = Isopropyl acetate 5.0 vol, panel at 40° C.
[24] = MEK 5.0 vol, equilibration at 20° C.
[25] = MeCN 5.0 vol, equilibration at 20° C.
[26] = MeOH 5.0 vol, equilibration at 20° C.
[27] = Methanol 5.0 vol, panel at 40° C.
[28] = Methyl acetate 5.0 vol, equilibration at 20° C.
[29] = Methyl acetate 5.0 vol, panel at 40° C.
[30] = Nitromethane 5.0 vol, panel at 40° C.
[31] = TBME 5.0 vol, equilibration at 20° C.
[32] = Toluene 5.0 vol, panel at 40° C.
[33] = Water 5.0 vol, equilibration at 20° C.

COc1ccc2c(ccn2C[C@@H](C)N(C)C)c1.Cl [Compound 1 HCl]
White Paste: Observations (t = 10 d @ 20° C.) [2, 6] | Observations (t = 10 d @ 20° C.) [2, 25] | Observations (t = 10 d @ 20° C.) [2, 31]
0.06: HPLC purity data, peak RT 11.29, RRT 0.93 [1, 3] | HPLC purity data, peak RT 11.41, RRT 0.94 [1, 4]
99.65: HPLC purity data, peak RT 12.41, RRT 1.00 (main peak) ([1]; t = 0, Table 111) | HPLC purity data, peak RT 12.14, RRT 1.00 (main peak) ([1]; t = 0, Table 112)
0.08: HPLC purity data, peak RT 16,50, RRT 1.36 ([1]; t = 0, Table 111) | HPLC purity data, peak RT 16.50, RRT 1.36 ([1]; t = 0, Table 112)
Partial: Observations (t = 1 d @ 20° C.) [2, 21]
Pink paste: Observations (t = 10 d @ 20° C.) [2, 8] | Observations (t = 10 d @ 20° C.) [2, 12] | Observations (t = 10 d @ 20° C.) [2, 14]
Orange susp.: Observations (t = 10 d @ 20° C.) ([2]; Water 5.0 vol, panel at 40° C.)
Solution: Observations (t = 0 @ 20° C.) [2, 33] | Observations (t = 1 d @ 20° C.) [2, 33] | Observations (t = 0 @ 20° C.) ([2]; Water 5.0 vol, panel at 40° C.)
0.07: HPLC purity data, peak RT 11.41, RRT 0.94 ([1]; t = 0, Table 111) | HPLC purity data, peak RT 15.41, RRT 1.27 ([1]; t = 0, Table 111) | HPLC purity data, peak RT 11.41, RRT 0.94 ([1]; t = 0, Table 112) | HPLC purity data, peak RT 15.41, RRT 1.27 ([1]; t = 0, Table 112)
0.04: HPLC purity data, peak RT 15.78, RRT 1.30 ([1]; t = 0, Table 111) | HPLC purity data, peak RT 15.78, RRT 1.30 ([1]; t = 0, Table 112) | HPLC purity data, peak RT 15.05, RRT 1.24 [1, 3]
99.78: HPLC purity data, peak RT 12.14, RRT 1.00 (main peak) [1, 4]
0.03: HPLC purity data, peak RT 14.32, RRT 1.18 ([1]; t = 0, Table 111) | HPLC purity data, peak RT 14.32, RRT 1.18 ([1]; t = 0, Table 112) | HPLC purity data, peak RT 14.32, RRT 1.18 [1, 3] | HPLC purity data, peak RT 14.32, RRT 1.18 [1, 4] | HPLC purity data, peak RT 14.68, RRT 1.21 [1, 4]
0.02: HPLC purity data, peak RT 12.01, RRT 0.99 ([1]; t = 0, Table 112) | HPLC purity data, peak RT 11.41, RRT 0.94 [1, 3] | HPLC purity data, peak RT 15.41, RRT 1.27 [1, 3] | HPLC purity data, peak RT 12.01, RRT 0.99 [1, 4] | HPLC purity data, peak RT 15.78, RRT 1.30 [1, 4]
White paste: Observations (t = 10 d @ 20° C.) [2, 13]
99.79: HPLC purity data, peak RT 12.41, RRT 1.00 (main peak) [1, 3]
Yellow susp.: Observations (t = 10 d @ 20° C.) [2, 7]
0.05: HPLC purity data, peak RT 15.05, RRT 1.24 ([1]; t = 0, Table 111) | HPLC purity data, peak RT 15.05, RRT 1.24 ([1]; t = 0, Table 112) | HPLC purity data, peak RT 15.05, RRT 1.24 [1, 4]
Suspension: Observations (t = 0 @ 20° C.) ([2]; 2-Propanol 5.0 vol, equilibration at 20° C.) | Observations (t = 0 @ 20° C.) [2, 5] | Observations (t = 1 d @ 20° C.) [2, 5] | Observations (t = 0 @ 20° C.) [2, 6] | Observations (t = 1 d @ 20° C.) [2, 6] | Observations (t = 0 @ 20° C.) [2, 7] | Observations (t = 1 d @ 20° C.) [2, 7] | Observations (t = 0 @ 20° C.) [2, 8] | Observations (t = 1 d @ 20° C.) [2, 8] | Observations (t = 0 @ 20° C.) ([2]; Acetone/Water (5% v/v, 0.5 aw) 5.0 vol, panel at 40° C.) | Observations (t = 0 @ 20° C.) [2, 9] | Observations (t = 1 d @ 20° C.) [2, 9] | Observations (t = 0 @ 20° C.) [2, 10] | Observations (t = 1 d @ 20° C.) [2, 10] | Observations (t = 0 @ 20° C.) [2, 11] | Observations (t = 1 d @ 20° C.) [2, 11] | Observations (t = 0 @ 20° C.) [2, 12] | Observations (t = 1 d @ 20° C.) [2, 12] | Observations (t = 0 @ 20° C.) ([2]; DCM 5.0 vol, panel at 40° C.) | Observations (t = 1 d @ 20° C.) ([2]; DCM 5.0 vol, panel at 40° C.) | Observations (t = 0 @ 20° C.) [2, 13] | Observations (t = 1 d @ 20° C.) [2, 13] | Observations (t = 0 @ 20° C.) [2, 14] | Observations (t = 1 d @ 20° C.) [2, 14] | Observations (t = 0 @ 20° C.) [2, 15] | Observations (t = 1 d @ 20° C.) [2, 15] | Observations (t = 0 @ 20° C.) ([2]; Ethanol/Water (15% v/v, 0.5 aw) 5.0 vol, equilibration at 20° C.) | Observations (t = 0 @ 20° C.) [2, 16] | Observations (t = 1 d @ 20° C.) [2, 16] | Observations (t = 0 @ 20° C.) [2, 17] | Observations (t = 1 d @ 20° C.) [2, 17] | Observations (t = 0 @ 20° C.) [2, 18] | Observations (t = 1 d @ 20° C.) [2, 18] | Observations (t = 0 @ 20° C.) [2, 19] | Observations (t = 1 d @ 20° C.) [2, 19] | Observations (t = 0 @ 20° C.) [2, 20] | Observations (t = 1 d @ 20° C.) [2, 20] | Observations (t = 0 @ 20° C.) [2, 21] | Observations (t = 0 @ 20° C.) ([2]; Isopropanol/Water (12% v/v, 0.5 aw) 5.0 vol, panel at 40° C.) | Observations (t = 0 @ 20° C.) [2, 22] | Observations (t = 1 d @ 20° C.) [2, 22] | Observations (t = 0 @ 20° C.) [2, 23] | Observations (t = 1 d @ 20° C.) [2, 23] | Observations (t = 0 @ 20° C.) [2, 24] | Observations (t = 1 d @ 20° C.) [2, 24] | Observations (t = 0 @ 20° C.) ([2]; MEK 5.0 vol, panel at 40° C.) | Observations (t = 1 d @ 20° C.) ([2]; MEK 5.0 vol, panel at 40° C.) | Observations (t = 0 @ 20° C.) [2, 25] | Observations (t = 1 d @ 20° C.) [2, 25] | Observations (t = 0 @ 20° C.) [2, 26] | Observations (t = 1 d @ 20° C.) [2, 26] | Observations (t = 0 @ 20° C.) ([2]; MeTHE 5.0 vol, equilibration at 20° C.) | Observations (t = 0 @ 20° C.) ([2]; MeTHF 5.0 vol, panel at 40° C.) | Observations (t = 1 d @ 20° C.) ([2]; MeTHF 5.0 vol, panel at 40° C.) | Observations (t = 0 @ 20° C.) [2, 27] | Observations (t = 1 d @ 20° C.) [2, 27] | Observations (t = 0 @ 20° C.) [2, 28] | Observations (t = 1 d @ 20° C.) [2, 28] | Observations (t = 0 @ 20° C.) [2, 29] | Observations (t = 1 d @ 20° C.) [2, 29] | Observations (t = 0 @ 20° C.) ([2]; Nitromethane 5.0 vol, equilibration at 20° C.) | Observations (t = 0 @ 20° C.) [2, 30] | Observations (t = 1 d @ 20° C.) [2, 30] | Observations (t = 0 @ 20° C.) [2, 31] | Observations (t = 1 d @ 20° C.) [2, 31] | Observations (t = 0 @ 20° C.) ([2]; THF 5.0 vol, equilibration at 20° C.) | Observations (t = 0 @ 20° C.) ([2]; THF 5.0 vol, panel at 40° C.) | Observations (t = 1 d @ 20° C.) ([2]; THF 5.0 vol, panel at 40° C.) | Observations (t = 0 @ 20° C.) ([2]; Toluene 5.0 vol, equilibration at 20° C.) | Observations (t = 0 @ 20° C.) [2, 32] | Observations (t = 1 d @ 20° C.) [2, 32] | Observations (t = 0 @ 20° C.) ([2]; tBME 5.0 vol, panel at 40° C.) | Observations (t = 1 d @ 20° C.) ([2]; tBME 5.0 vol, panel at 40° C.)
0.01: HPLC purity data, peak RT 15.41, RRT 1.27 [1, 4]
